{"source": "patent US3955959A", "about": "“Herbicide for use in transplanted rice” (priority 1974, dated 1976)", "key": {"[1]": {"test_system": "weeds Ec, Ann. Cyp, Mv, Obw, Ea", "experiment": "Example 5 field test, average weed control, JAAPR, Japan", "description": "In the tests described in the tables below, the herbicides were formulated and used in granular form in conventional manner. […] The commercial herbicide used was a granular product having 5% active ingredient.\nIn the field tests of the herbicide of this invention with transplanted rice, the rice seedlings were grown in conventional manner, by seeding the rice in a typical seedbed of sandy loam to clay soil of the country wherein the test was conducted. For laboratory and greenhouse work the seedlings were obtained by seeding rice in a mixture of soil, e.g., Ray silt loam, and peat in wood flats. For purposes of testing the herbicides on younger rice seedlings (infant or Dapog) the rice was usually allowed to grow for 6-15 days before lifting for transplanting. Older (ordinary) rice plants were usually grown for a period of about 2-3 weeks, or as much as about 7 weeks before lifting. Since the period of growth is dependent upon climatic conditions, a better measure of when to transplant the rice seedling is the leaf stage of growth; for infant or Dapog rice the seedling is lifted at the 1.5-2 leaf stage of growth, and for ordinary seedlings at the 2.5-5 leaf stage. The seedlings were then transplanted to the test plots for evaluation of the herbicide for injury against weed species present with the transplanted rice. The herbicides were then applied to the growth medium of the weeds and transplant rice, either preemergent or postemergent with respect to the weeds and postemergent with respect to the transplanted rice. Application times are designated in the tables as \"DAT\", meaning \"days after transplant\". Application rates given in the tables refer to the amount of active ingredient used.\nThe rice seedlings were grown to the 1.7 leaf stage for infant seedlings and to the 5.5 leaf stage for ordinary seedlings. Two days after puddling the soil in which the seedlings were to be transplanted, both infant and ordinary seedlings were transplanted into plots 8.5 m^2.\nThe weed symbol \"Obw\" represents \"other broadleaf weeds\" of unspecified identity. Results presented in Table 5 represent the average of 2 replications."}, "[2]": {"test_system": "Broadleaf: Mv, Sz (Monochoria vaginalis, Sphenoclea zeylanica)", "experiment": "Example 4 field test on ordinary rice, weed control, Munoz, Philippines", "assay_type": "in vivo, Monochoria vaginalis and Sphenoclea zeylanica", "conditions": "obs. 36 DAT", "description": "Treatments were replicated four times."}, "[3]": {"test_system": "Echinochloa crusgalli", "experiment": "Example 2 field test, weed control, Chia Yi, Taiwan", "assay_type": "in vivo", "conditions": "obs. 63 DAT", "experimental": "In the field tests of the herbicide of this invention with transplanted rice, the rice seedlings were grown in conventional manner, by seeding the rice in a typical seedbed of sandy loam to clay soil of the country wherein the test was conducted. For laboratory and greenhouse work the seedlings were obtained by seeding rice in a mixture of soil, e.g., Ray silt loam, and peat in wood flats. For purposes of testing the herbicides on younger rice seedlings (infant or Dapog) the rice was usually allowed to grow for 6-15 days before lifting for transplanting. Older (ordinary) rice plants were usually grown for a period of about 2-3 weeks, or as much as about 7 weeks before lifting. Since the period of growth is dependent upon climatic conditions, a better measure of when to transplant the rice seedling is the leaf stage of growth; for infant or Dapog rice the seedling is lifted at the 1.5-2 leaf stage of growth, and for ordinary seedlings at the 2.5-5 leaf stage. The seedlings were then transplanted to the test plots for evaluation of the herbicide for injury against weed species present with the transplanted rice. The herbicides were then applied to the growth medium of the weeds and transplant rice, either preemergent or postemergent with respect to the weeds and postemergent with respect to the transplanted rice. […] Application rates given in the tables refer to the amount of active ingredient used.\nRice seedlings (ordinary) of Tainan No. 5 variety (japonica) were transplanted at 19 days of growth. Granular formulations of Herbicides A and B were applied at the 1 leaf stage of grass weed (4 DAT) and 2.5 leaf stage of grass weed (10 DAT)."}, "[4]": {"test_system": "transplanted rice", "experiment": "Example 1 field test, rice yield", "assay_type": "in vivo, rice (Watanabe variety)", "description": "In the field test 48 day-old seedlings (Watanabe variety) were transplanted to plots 2.5 × 6 m. seeded with the weed seeds indicated in Table 1. At 5 and 10 DAT periods, the herbicides were applied to the plants (now at the 1.2 and 2.0 leaf stage, respectively, of grass weed) at the indicated rate in kilograms per hectare (kg/ha). The weed control and rice injury results for 3 replications are reported in percentages as of the indicated times of observation. The percentages given in the \"Perennials\" column are based on the weight of the weeds at 63 DAT, i.e., 42 gms/3.6 m^2 for the weedy check."}, "[5]": {"test_system": "Ce (Cyperus esculentus)", "experiment": "Example 7 greenhouse preemergence activity", "assay_type": "in vivo", "description": "In a further comparative study of the preemergence activity of Herbicides A and B, a variety of weeds and upland direct-seeded rice were tested under greenhouse conditions. The present invention is not concerned with the use of Herbicide A in direct-seeded rice. The primary purpose of the experimental work in this example is to compare relative herbicidal activity of Herbicides A and B against the weeds shown in Table 7; most of these weeds were not available for tests with transplanted rice. Although the relative selectivity of these herbicides in upland rice is also evident, that aspect of the tests is more or less incidental to the purpose of this example.\nIn this example, rice seeds and seeds of the weeds shown in Table 7 were sown in Ray silt loam soil at a depth of 0.5 inch (1.27 cm) in containers for the soil in a greenhouse. Herbicides A and B were applied to the surface of the soil at a spray volume equivalent to 20 gals/acre (187.1 liters/hectare), followed by 0.5 in (1.27 cm) of overhead irrigation. Temperature and relative humidity in the greenhouse were on the order of 85°F (29°C) and 75%, respectively. Observations were made at 21-28 days after seeding.\nIn Table 7 are shown the average rates of herbicide required to cause a growth reduction of 85% of the weeds (\"GR85 \"), and the average rate of herbicide required to cause a growth reduction of 15% (\"GR15 \") of the rice plants (Oryza sativa, \"Os\", variety Bluebelle)."}, "[6]": {"test_system": "pigweed, annual morning glory, smartweed, cocklebur, Italian ryegrass, crop rye, sorghum, quack grass and nutsedge", "experiment": "Example 9 soil life bioassay, greenhouse", "assay_type": "in vivo", "conditions": "for Soil Longevity: 5 lbs/Ac (5.605 kg/ha), Ray silt loam", "description": "In this example, additional tests were run to compare the relative soil life of Herbicides A and B under greenhouse conditions.\nIn the soil life tests, a standardized procedure involving a series of bioassay periods, or cycles, was used. In the procedure, an arbitrary, selected mixture of four grasses, four broadleaf weeds and a sedge were seeded into Ray silt loam soil previously prepared and treated with the herbicide under test and periodically watered by sub-irrigation. After a six-week bioassay period, (i.e., the first cycle), the plants were evaluated visually for herbicidal activity. That soil in which at least 75% of three or more grass and/or broadleaf species or of the sedge alone were controlled at the end of the cycle, was advanced to a second cycle, or six-week bioassay period. The second cycle involved the same procedure as the first cycle, except that additionally, the equivalent of 50 lbs/ac (56.05 Kgs/ha) of nitrogen was mixed into the cover layer of the soil which was reseeded with the mixture of plants mentioned earlier. The plants were evaluated for herbicidal activity at the end of this six-week period and, again, the soil in which at least 75% of the grasses or broadleaf species or of the sedge alone were controlled was advanced to a third cycle. The foregoing procedure was repeated until herbicidal activity fell below that required for initiation of a new cycle.\nFor purposes of the soil life tests, the following spectrum of plants were used as indicators: pigweed, annual morning glory, smartweed, cocklebur, Italian ryegrass, crop rye, sorghum, quack grass and nutsedge."}}, "note": "“And” between values parts separate entries of the source, which are not always exact repeats. Identical values can stand only once."}
{"smiles": "CCCCOCN(C(=O)CCl)c1c(C)cccc1C(C)(C)C", "note": "[Herbicide A, n-(butoxymethyl)-6'-tert-butyl-2-chloro-o-acetotoluidide]", "values": [{"measurement": "weed control vs Herbicide B at 1.5 kg/ha 7 DAT", "setting": "[1]; 0.25 kg/ha, 2 DAT, Ec, Ann. Cyp, Obw and average, ordinary and infant", "result": "equal to or superior"}, {"measurement": "% Weed Control, Avg.", "setting": "[1]; 1.0 kg/ha, 15 DAT, infant seedlings", "result": 90, "unit": "%"}, {"measurement": "% Weed Control, Avg.", "setting": "[1]; 1.0 kg/ha, 15 DAT, ordinary seedlings", "result": 90, "unit": "%"}, {"measurement": "% Weed Control, Avg.", "setting": "[1]; .25 kg/ha, 2 DAT, infant seedlings", "result": 93, "unit": "%"}, {"measurement": "% Weed Control, Avg.", "setting": "[1]; .25 kg/ha, 2 DAT, ordinary seedlings", "result": 92, "unit": "%"}, {"measurement": "% Weed Control, Avg.", "setting": "[1]; .5 kg/ha, 7 DAT, infant seedlings", "result": 81, "unit": "%"}, {"measurement": "% Weed Control, Avg.", "setting": "[1]; .5 kg/ha, 7 DAT, ordinary seedlings", "result": 84, "unit": "%"}, {"measurement": "fold more active than Herbicide B", "setting": "[1]; average weed control, 7 DAT", "result": "at least 3 fold"}, {"measurement": "% Weed control, Broadleaf (Mv,Sz)", "setting": "[2]; 5 DAT, 1.0 kg/ha", "result": 100, "unit": "%"}, {"measurement": "% Weed control, Broadleaf (Mv,Sz)", "setting": "[2]; 5 DAT, 2.0 kg/ha", "result": 100, "unit": "%"}, {"measurement": "% Weed control, Broadleaf (Mv,Sz)", "setting": "[2]; 5 DAT, .25 kg/ha", "result": 100, "unit": "%"}, {"measurement": "% Weed control, Broadleaf (Mv,Sz)", "setting": "[2]; 5 DAT, .5 kg/ha", "result": 100, "unit": "%"}, {"measurement": "% Weed control, Broadleaf (Mv,Sz)", "setting": "[2]; 14 DAT, 1.0 kg/ha", "result": 60, "unit": "%"}, {"measurement": "% Weed control, Broadleaf (Mv,Sz)", "setting": "[2]; 14 DAT, 2.0 kg/ha", "result": 60, "unit": "%"}, {"measurement": "% Weed control, Broadleaf (Mv,Sz)", "setting": "[2]; 14 DAT, .25 kg/ha", "result": 50, "unit": "%"}, {"measurement": "% Weed control, Broadleaf (Mv,Sz)", "setting": "[2]; 14 DAT, .5 kg/ha", "result": 50, "unit": "%"}, {"measurement": "% Weed Control (Echinochloa crusgalli)", "setting": "[3]; 4 DAT, 1.0 kg/ha", "result": 100, "unit": "%"}, {"measurement": "% Weed Control (Echinochloa crusgalli)", "setting": "[3]; 4 DAT, 2.0 kg/ha", "result": 100, "unit": "%"}, {"measurement": "% Weed Control (Echinochloa crusgalli)", "setting": "[3]; 4 DAT, .25 kg/ha", "result": 85, "unit": "%"}, {"measurement": "% Weed Control (Echinochloa crusgalli)", "setting": "[3]; 4 DAT, .5 kg/ha", "result": 98, "unit": "%"}, {"measurement": "% Weed Control (Echinochloa crusgalli)", "setting": "[3]; 10 DAT, 1.0 kg/ha", "result": 100, "unit": "%"}, {"measurement": "% Weed Control (Echinochloa crusgalli)", "setting": "[3]; 10 DAT, 2.0 kg/ha", "result": 100, "unit": "%"}, {"measurement": "% Weed Control (Echinochloa crusgalli)", "setting": "[3]; 10 DAT, .25 kg/ha", "result": 65, "unit": "%"}, {"measurement": "% Weed Control (Echinochloa crusgalli)", "setting": "[3]; 10 DAT, .5 kg/ha", "result": 95, "unit": "%"}, {"measurement": "Yield (% of Hand-weeded Check)", "setting": "[4]; in vivo", "result": "102% and 101% and 100% and 98% and 99%"}, {"measurement": "resistance of Ce", "setting": "[5]", "result": "resistant"}, {"measurement": "Soil Longevity", "setting": "[6]", "result": 29, "unit": "Weeks"}, {"measurement": "residual preemergence activity longer than Herbicide B", "setting": "[6]; equal rates, 5 lbs/Ac", "result": "about 50%"}]}
{"smiles": "CCCCOCN(C(=O)CCl)c1c(CC)cccc1CC", "note": "[Herbicide B, n-(butoxymethyl)-2',6'-diethyl-2-chloroacetanilide, reference compound]", "values": [{"measurement": "% Weed Control, Avg.", "setting": "[1]; 1.5 kg/ha, 7 DAT, infant seedlings", "result": 93, "unit": "%"}, {"measurement": "% Weed Control, Avg.", "setting": "[1]; 1.5 kg/ha, 7 DAT, ordinary seedlings", "result": 86, "unit": "%"}, {"measurement": "% Weed control, Broadleaf (Mv,Sz)", "setting": "[2]; 5 DAT, 1.0 kg/ha", "result": 100, "unit": "%"}, {"measurement": "% Weed control, Broadleaf (Mv,Sz)", "setting": "[2]; 5 DAT, 1.5 kg/ha", "result": 100, "unit": "%"}, {"measurement": "% Weed control, Broadleaf (Mv,Sz)", "setting": "[2]; 5 DAT, 3.0 kg/ha", "result": 100, "unit": "%"}, {"measurement": "% Weed control, Broadleaf (Mv,Sz)", "setting": "[2]; 14 DAT, 1.0 kg/ha", "result": 0, "unit": "%"}, {"measurement": "% Weed control, Broadleaf (Mv,Sz)", "setting": "[2]; 14 DAT, 1.5 kg/ha", "result": 0, "unit": "%"}, {"measurement": "% Weed control, Broadleaf (Mv,Sz)", "setting": "[2]; 14 DAT, 3.0 kg/ha", "result": 50, "unit": "%"}, {"measurement": "% Weed Control (Echinochloa crusgalli)", "setting": "[3]; 4 DAT, 1.0 kg/ha", "result": 65, "unit": "%"}, {"measurement": "% Weed Control (Echinochloa crusgalli)", "setting": "[3]; 4 DAT, 1.5 kg/ha", "result": 92, "unit": "%"}, {"measurement": "% Weed Control (Echinochloa crusgalli)", "setting": "[3]; 4 DAT, 3.0 kg/ha", "result": 97, "unit": "%"}, {"measurement": "% Weed Control (Echinochloa crusgalli)", "setting": "[3]; 10 DAT, 1.0 kg/ha", "result": 77, "unit": "%"}, {"measurement": "% Weed Control (Echinochloa crusgalli)", "setting": "[3]; 10 DAT, 1.5 kg/ha", "result": 78, "unit": "%"}, {"measurement": "% Weed Control (Echinochloa crusgalli)", "setting": "[3]; 10 DAT, 3.0 kg/ha", "result": 98, "unit": "%"}, {"measurement": "yield depression", "setting": "[4]; 1.0 kg/ha", "result": "significant yield depression"}, {"measurement": "Yield (% of Hand-weeded Check)", "setting": "[4]; 5 DAT, 1.0 kg/ha", "result": 95, "unit": "%"}, {"measurement": "Yield (% of Hand-weeded Check)", "setting": "[4]; 5 DAT, 1.5 kg/ha", "result": 100, "unit": "%"}, {"measurement": "Yield (% of Hand-weeded Check)", "setting": "[4]; 5 DAT, 3.0 kg/ha", "result": 99, "unit": "%"}, {"measurement": "Yield (% of Hand-weeded Check)", "setting": "[4]; 10 DAT, 1.0 kg/ha", "result": 95, "unit": "%"}, {"measurement": "Yield (% of Hand-weeded Check)", "setting": "[4]; 10 DAT, 1.5 kg/ha", "result": 97, "unit": "%"}, {"measurement": "Yield (% of Hand-weeded Check)", "setting": "[4]; 10 DAT, 3.0 kg/ha", "result": 100, "unit": "%"}, {"measurement": "resistance of Ce", "setting": "[5]", "result": "resists"}, {"measurement": "Soil Longevity", "setting": "[6]", "result": 20, "unit": "Weeks"}]}
